From patent publication US10888090B2, “Plant growth promoters and methods of using them” (KING ABDULLAH UNIVERSITY OF SCIENCE AND TECHNOLOGY, priority 2015, dated 2021)

What was measured:
[1] = test system: rice seedlings (cultivar 'Dongjin'); assay: Rice seedlings grown hydroponically with the compound: crown roots and biomass; type: in vivo; details: hydroponic
Method: FIG. 10: 3-OH-β-apo-13-Carotenone treatment increases the number of crown roots in rice. Seeds of cultivar ‘Dongjin’ were pre-germinated in water for 2 days followed by transfer to filter papers placed in petri dishes containing half-strength liquid Murashige and Skoog (MS) medium. The cultures were incubated at 24° C. for one week. Thereafter, the seedlings were grown hydroponically in half-strength modified Hoagland nutrient solution containing different concentrations of 3-OH-β-apo-13-carotenone for 2 weeks in the greenhouse. The medium was changed twice a week, data were recorded 2 weeks after treatment. (FIG. 10A) Number of crown roots of rice seedlings 2 weeks after treatment. Each value represents the mean of 10 seedlings. Error bar indicates standard error. Asterisks denote a significant difference from the mock treatment by student t-test (* P<0.05; ** P<0.01). FIG. 11: Root and shoot biomass of rice seedlings treated with 3-OH-β-apo-13-Carotenone. One week-old seedlings of cultivar ‘Dongjin’ were grown hydroponically in half-strength modified Hoagland nutrient solution containing different concentrations of 3-OH-β-apo-13-Carotenone for two weeks in the greenhouse. The medium was changed twice a week. After two weeks, roots and shoots were collected separately and dried in an incubator at 80° C. for 3 days. Dried samples were weighed using a Mettler Toledo balance. […]

Arabidopsis (Col-0) [2] = assay: Primary root length in Arabidopsis; type: in vivo; details: 2.5 μM, 9 days
Method: FIG. 16: 3-OH-β-apo-13-Carotenone treatment of Arabidopsis increases the length of primary root. Arabidopsis (Col-0) seeds were germinated on/MS-plates (with 0.5% sucrose) containing 3-OH-β-apo-13-carotenone and grown in 16 light/8 dark period, 22° C. for 9 days. *P<0.05; Student's t-test; **P<0.05; Student's t test. 3-OH-β-apo-13-carotenone was applied at 2.5 μM concentration. Also investigated was the effect of the compound on primary root length.

[3] = test system: Leaf explants of 12-day-old seedlings; assay: Leaf-derived adventitious roots (leaf explants of 12-day-old seedlings); type: in vivo, Arabidopsis thaliana
Excerpt: FIG. 13: 3-OH-β-apo-13-Carotenone treatment increases the number of leaf-derived adventitious roots (Leaf explants of 12-day-old seedlings). […] Therefore, we tested whether β-apo-13-carotenone can also induce adventitious root formation in the model plant Arabidopsis thaliana. As shown in FIGS. 12A and 12B, the compound exerted a clear induction on the number of hypocotyl-derived adventitious roots that usually arise spontaneously after dark-light transition. Highest activity—around 50% increase, was obtained with 2.5 μM concentrations (FIGS. 12A and 12B).

Arabidopsis = assay: Number of lateral roots in Arabidopsis (14 days old plants); type: in vivo
Method: FIG. 14: 3-OH-β-apo-13-Carotenone treatment of Arabidopsis increases the number of lateral roots in a concentration-dependent manner (14 days old plants). 0-5 μM corresponds to different concentrations of synthetic 3-OH-β-apo-13-Carotenone. Puri corresponds to synthetic 3-OH-β-apo-13-Carotenone after HPLC purification. […] Therefore, we tested whether β-apo-13-carotenone can also induce adventitious root formation in the model plant Arabidopsis thaliana. As shown in FIGS. 12A and 12B, the compound exerted a clear induction on the number of hypocotyl-derived adventitious roots that usually arise spontaneously after dark-light transition. Highest activity—around 50% increase, was obtained with 2.5 μM concentrations (FIGS. 12A and 12B). […] To ensure that the biological activity observed is caused by 3-OH-β-apo-13-carotenone and not by a possible contamination with a different compound that may be included during the organic synthesis, HPLC was used to isolate highly pure 3-OH-β-apo-13-carotenone, and the purified compound was applied.

Greenhouse experiments = type: in vivo
Arabidopsis (Col-0) [4] = assay: Lateral root density in Arabidopsis, single and combined treatment with auxin; type: in vivo; details: 3-OH-β-apo-13-carotenone 2.5 μM, auxin 100 nM; 9 days
Method: FIG. 15: Combined 3-OH-β-apo-13-Carotenone and auxin treatment of Arabidopsis has a synergetic effect on lateral root density. 3-OH-β-apo-13-carotenone and auxin (indole-3-acetic acid) were applied at 2.5 μM and 100 nM, concentrations, respectively. Arabidopsis (Col-0) seeds were germinated in/MS-plates (with 0.5% sucrose) containing individual and both compounds together and grown in 16 light/8 dark period, 22° C. for 9 days. Graph represents both actual density and in percentage. *P<0.05; Student's t test; **P<0.05; Student's t test. Also investigated was possible effect of combining 3-OH-β-apo-13-carotenone with auxin.

[5] = test system: Arabidopsis (col-0) seedlings; assay: Hypocotyl-derived adventitious root formation in Arabidopsis seedlings; type: in vivo, Arabidopsis thaliana; details: 2.5 μM; arising after dark-light transition
Excerpt: FIG. 12A: 3-OH-β-apo-13-Carotenone treatment increases the number of hypocotyl-derived adventitious roots in a concentration-dependent manner (14 days old plants). For a better resolution, see FIG. 12B. FIG. 12B: 3-OH-β-apo-13-Carotenone treatment increases the number of hypocotyl-derived adventitious roots. (A) 4-day-old Arabidopsis (col-0) seedlings were transferred to 3-OH-β-apo-13-Carotenone containing plates at the indicated concentrations and grown for 10 days. Red arrows indicate adventitious roots on hypocotyl (B) Average number of adventitious roots. Seeds were germinated on 1 MS medium with 0.5% sucrose (pH 5.7) and grown for 4 days in the dark. Error bars represent means±S.E. Asterisks indicate significant differences as calculated using a standard Student's t-test (*P<0.005, ** <0.001). […] Therefore, we tested whether β-apo-13-carotenone can also induce adventitious root formation in the model plant Arabidopsis thaliana. As shown in FIGS. 12A and 12B, the compound exerted a clear induction on the number of hypocotyl-derived adventitious roots that usually arise spontaneously after dark-light transition. Highest activity—around 50% increase, was obtained with 2.5 μM concentrations (FIGS. 12A and 12B).

root hairs = details: at high concentration; cited from earlier work

| SMILES | number of crown roots ([1]; micromolar concentrations, 2 weeks after treatment) | increase in root and shoot biomass ([1]; two weeks, dried samples) | primary root length (Arabidopsis (Col-0) [2]) | number of leaf-derived adventitious roots [3] | number of lateral roots (Arabidopsis; 2.5 μM, synthetic compound) | lateral root number (Arabidopsis; compound after HPLC purification) | growth and flowering in greenhouse experiments (Greenhouse experiments) | increase in lateral root density, single treatment (Arabidopsis (Col-0) [4]) | increase in number of hypocotyl-derived adventitious roots (highest activity) [5] | tip growth of root hairs (root hairs) |
| --- | --- | --- | --- | --- | --- | --- | --- | --- | --- | --- |
| CC(=O)/C=C/C=C(C)/C=C/C1=C(C)CC(O)CC1(C)C (stereo not drawn) [3-OH-β-apo-13-carotenone] | obvious increase in the number of crown roots | around 30% | small but significant increase | noticeable increase (duplication) | clearly increased the number of lateral roots | increase in lateral root number was detected similar to that observed before | growth-promoting effects and early flowering | around 20% | around 50% |  |
| O=C(O)Cc1c[nH]c2ccccc12 [auxin, indole-3-acetic acid, reference compound] |  |  |  |  |  |  |  | ~30% |  |  |
| CC(=O)/C=C/C=C(C)/C=C/C1=C(C)CCCC1(C)C [d'orenone, β-apo-13-carotenone] |  |  |  |  |  |  |  |  |  | block tip growth of root hairs |
